# Results reported in BindingDB's records for patent WO2022081842 (THE BROAD INSTITUTE, INC., 2022).
# Target: T1, Histone acetyltransferase KAT6A [507-778] (Human, UniProt Q92794)
# T1 construct: 507-778
# Assay: Kat6a Activity Assay
# From the text: Kat6a inhibitory activities of the compounds described in the present invention were quantified using a Fluorescence Resonance Energy Transfer (TR-FRET) assay which measures acetylation of a synthetic, biotinylated Histone-H4-derived peptide by the enzyme.Recombinant human His-tagged Kat6a protein (amino acids 194-810), was purified in-house from Baculovirus- infected insect cells (Sf9). Histone H4 peptide (amino acids 1-24, […]-VLRD-K(Btn)-amide), which was used as substrate, was synthesized by Biosyntan GmbH, Berlin, Germany. Acetyl Coenzyme A was purchased from Sigma-Aldrich (#A-2056).Kat6a was incubated for 60 mins at 22°C in the presence of different concentrations of test substances (0 μM, and within the range 0.01 - 20 μM) in assay buffer [25 mM Tris/HCl pH 8, 1 mM EGTA, 2.5 mM Glutathion, 0.02% Chicken Albumin, 0.05% Pluronic F127, 25 mM NaCl, 220 nM H4 peptide and 600 nM Acetyl Coenzyme A].The reaction was stopped by addition of Detection Solution (25mM HEPES pH 7.5, 0.1% BSA, 22nM SAXL665 (Cisbio #610SAXLE), 100μM Anacardic Acid (Enzo #ALX-270-381), 1nM Anti-Histone H4 (ACETYL K8) Antibody (ABCAM #AB15823) and 0.5 nM Anti-Rabbit IgG Eu (Perkin Elmer #AD0083).
# T1 sequence (Q92794 whole entry): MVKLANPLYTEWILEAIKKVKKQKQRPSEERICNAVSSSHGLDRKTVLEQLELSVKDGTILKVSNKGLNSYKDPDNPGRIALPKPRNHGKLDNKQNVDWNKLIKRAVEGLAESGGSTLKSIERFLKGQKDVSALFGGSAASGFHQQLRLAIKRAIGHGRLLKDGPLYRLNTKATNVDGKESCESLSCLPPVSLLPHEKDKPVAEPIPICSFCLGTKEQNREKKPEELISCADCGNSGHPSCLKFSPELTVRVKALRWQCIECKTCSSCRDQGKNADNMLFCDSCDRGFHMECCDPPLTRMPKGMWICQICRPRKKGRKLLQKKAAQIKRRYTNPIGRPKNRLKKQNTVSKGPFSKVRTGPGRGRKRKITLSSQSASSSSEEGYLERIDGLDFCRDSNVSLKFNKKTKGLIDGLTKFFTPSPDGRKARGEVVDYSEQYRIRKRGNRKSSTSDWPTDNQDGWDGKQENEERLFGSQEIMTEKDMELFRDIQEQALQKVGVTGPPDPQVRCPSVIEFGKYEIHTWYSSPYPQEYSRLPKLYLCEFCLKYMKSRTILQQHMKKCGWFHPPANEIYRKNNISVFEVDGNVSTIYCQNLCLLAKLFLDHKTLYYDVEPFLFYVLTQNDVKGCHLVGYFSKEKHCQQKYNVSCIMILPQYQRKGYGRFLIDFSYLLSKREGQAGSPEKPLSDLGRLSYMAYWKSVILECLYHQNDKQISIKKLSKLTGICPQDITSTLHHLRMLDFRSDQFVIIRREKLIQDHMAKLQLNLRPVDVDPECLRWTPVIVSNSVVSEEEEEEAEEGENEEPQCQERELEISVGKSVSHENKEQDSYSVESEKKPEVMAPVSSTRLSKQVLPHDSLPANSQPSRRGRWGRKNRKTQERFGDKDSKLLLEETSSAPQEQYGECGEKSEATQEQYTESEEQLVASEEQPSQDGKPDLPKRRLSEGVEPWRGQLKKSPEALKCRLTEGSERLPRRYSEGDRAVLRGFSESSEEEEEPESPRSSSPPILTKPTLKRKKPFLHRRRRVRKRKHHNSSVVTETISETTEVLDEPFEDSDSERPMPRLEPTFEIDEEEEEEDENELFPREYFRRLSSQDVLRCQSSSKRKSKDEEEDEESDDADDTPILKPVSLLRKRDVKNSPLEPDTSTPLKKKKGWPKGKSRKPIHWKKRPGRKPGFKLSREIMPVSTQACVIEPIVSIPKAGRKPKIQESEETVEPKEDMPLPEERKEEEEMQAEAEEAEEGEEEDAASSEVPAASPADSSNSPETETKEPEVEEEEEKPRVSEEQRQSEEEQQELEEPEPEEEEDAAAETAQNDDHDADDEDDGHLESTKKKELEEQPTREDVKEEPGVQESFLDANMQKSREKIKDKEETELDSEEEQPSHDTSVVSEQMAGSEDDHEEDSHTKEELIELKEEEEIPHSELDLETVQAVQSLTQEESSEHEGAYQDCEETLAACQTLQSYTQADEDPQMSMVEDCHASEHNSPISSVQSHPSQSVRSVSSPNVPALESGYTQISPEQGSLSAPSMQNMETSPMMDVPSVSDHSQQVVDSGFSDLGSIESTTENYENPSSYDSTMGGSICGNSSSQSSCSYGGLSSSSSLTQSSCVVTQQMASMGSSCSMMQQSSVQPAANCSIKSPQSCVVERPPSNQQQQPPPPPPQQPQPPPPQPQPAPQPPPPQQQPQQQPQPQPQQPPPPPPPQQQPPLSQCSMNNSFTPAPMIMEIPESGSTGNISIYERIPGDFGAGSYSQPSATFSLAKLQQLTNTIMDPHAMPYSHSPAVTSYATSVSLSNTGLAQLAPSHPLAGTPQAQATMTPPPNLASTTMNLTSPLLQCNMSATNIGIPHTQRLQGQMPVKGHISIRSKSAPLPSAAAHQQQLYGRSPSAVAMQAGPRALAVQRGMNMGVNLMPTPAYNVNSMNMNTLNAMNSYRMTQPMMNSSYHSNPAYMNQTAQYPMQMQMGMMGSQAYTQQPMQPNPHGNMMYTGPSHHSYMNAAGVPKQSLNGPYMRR
row,SMILES,IC50 [nM]
1,"C=C(C)c1ccc2cc(C(=O)NS(=O)(=O)c3ccccc3-c3ccccc3)oc2c1 [WO2022081842, Example 23]",215
2,"O=C(NS(=O)(=O)c1ccccc1-c1ccccc1)c1cc2c(F)cc(C3CC3)cc2o1 [WO2022081842, Example 38]",17
3,"CCOc1ccccc1S(=O)(=O)NC(=O)c1cc2c(OC(F)F)cc(C3CC3)cc2o1 [WO2022081842, Example 49]",29
4,"CCOc1ccccc1S(=O)(=O)NC(=O)c1cc2c(C(F)(F)F)cc(C3CC3)cc2o1 [WO2022081842, Example 51]",26
5,"CC(C)c1ccc2cc(C(=O)NS(=O)(=O)c3ccc(Cl)cc3Cl)oc2c1 [WO2022081842, Example 57]",611
6,"CCOc1ccccc1S(=O)(=O)NC(=O)c1cc2c(-n3ccnc3)cc(C3CC3)cc2o1 [WO2022081842, Example 58]",40

# Target: Histone acetyltransferase KAT6B (Human, UniProt Q8WYB5)
# Sequence (Q8WYB5 whole entry): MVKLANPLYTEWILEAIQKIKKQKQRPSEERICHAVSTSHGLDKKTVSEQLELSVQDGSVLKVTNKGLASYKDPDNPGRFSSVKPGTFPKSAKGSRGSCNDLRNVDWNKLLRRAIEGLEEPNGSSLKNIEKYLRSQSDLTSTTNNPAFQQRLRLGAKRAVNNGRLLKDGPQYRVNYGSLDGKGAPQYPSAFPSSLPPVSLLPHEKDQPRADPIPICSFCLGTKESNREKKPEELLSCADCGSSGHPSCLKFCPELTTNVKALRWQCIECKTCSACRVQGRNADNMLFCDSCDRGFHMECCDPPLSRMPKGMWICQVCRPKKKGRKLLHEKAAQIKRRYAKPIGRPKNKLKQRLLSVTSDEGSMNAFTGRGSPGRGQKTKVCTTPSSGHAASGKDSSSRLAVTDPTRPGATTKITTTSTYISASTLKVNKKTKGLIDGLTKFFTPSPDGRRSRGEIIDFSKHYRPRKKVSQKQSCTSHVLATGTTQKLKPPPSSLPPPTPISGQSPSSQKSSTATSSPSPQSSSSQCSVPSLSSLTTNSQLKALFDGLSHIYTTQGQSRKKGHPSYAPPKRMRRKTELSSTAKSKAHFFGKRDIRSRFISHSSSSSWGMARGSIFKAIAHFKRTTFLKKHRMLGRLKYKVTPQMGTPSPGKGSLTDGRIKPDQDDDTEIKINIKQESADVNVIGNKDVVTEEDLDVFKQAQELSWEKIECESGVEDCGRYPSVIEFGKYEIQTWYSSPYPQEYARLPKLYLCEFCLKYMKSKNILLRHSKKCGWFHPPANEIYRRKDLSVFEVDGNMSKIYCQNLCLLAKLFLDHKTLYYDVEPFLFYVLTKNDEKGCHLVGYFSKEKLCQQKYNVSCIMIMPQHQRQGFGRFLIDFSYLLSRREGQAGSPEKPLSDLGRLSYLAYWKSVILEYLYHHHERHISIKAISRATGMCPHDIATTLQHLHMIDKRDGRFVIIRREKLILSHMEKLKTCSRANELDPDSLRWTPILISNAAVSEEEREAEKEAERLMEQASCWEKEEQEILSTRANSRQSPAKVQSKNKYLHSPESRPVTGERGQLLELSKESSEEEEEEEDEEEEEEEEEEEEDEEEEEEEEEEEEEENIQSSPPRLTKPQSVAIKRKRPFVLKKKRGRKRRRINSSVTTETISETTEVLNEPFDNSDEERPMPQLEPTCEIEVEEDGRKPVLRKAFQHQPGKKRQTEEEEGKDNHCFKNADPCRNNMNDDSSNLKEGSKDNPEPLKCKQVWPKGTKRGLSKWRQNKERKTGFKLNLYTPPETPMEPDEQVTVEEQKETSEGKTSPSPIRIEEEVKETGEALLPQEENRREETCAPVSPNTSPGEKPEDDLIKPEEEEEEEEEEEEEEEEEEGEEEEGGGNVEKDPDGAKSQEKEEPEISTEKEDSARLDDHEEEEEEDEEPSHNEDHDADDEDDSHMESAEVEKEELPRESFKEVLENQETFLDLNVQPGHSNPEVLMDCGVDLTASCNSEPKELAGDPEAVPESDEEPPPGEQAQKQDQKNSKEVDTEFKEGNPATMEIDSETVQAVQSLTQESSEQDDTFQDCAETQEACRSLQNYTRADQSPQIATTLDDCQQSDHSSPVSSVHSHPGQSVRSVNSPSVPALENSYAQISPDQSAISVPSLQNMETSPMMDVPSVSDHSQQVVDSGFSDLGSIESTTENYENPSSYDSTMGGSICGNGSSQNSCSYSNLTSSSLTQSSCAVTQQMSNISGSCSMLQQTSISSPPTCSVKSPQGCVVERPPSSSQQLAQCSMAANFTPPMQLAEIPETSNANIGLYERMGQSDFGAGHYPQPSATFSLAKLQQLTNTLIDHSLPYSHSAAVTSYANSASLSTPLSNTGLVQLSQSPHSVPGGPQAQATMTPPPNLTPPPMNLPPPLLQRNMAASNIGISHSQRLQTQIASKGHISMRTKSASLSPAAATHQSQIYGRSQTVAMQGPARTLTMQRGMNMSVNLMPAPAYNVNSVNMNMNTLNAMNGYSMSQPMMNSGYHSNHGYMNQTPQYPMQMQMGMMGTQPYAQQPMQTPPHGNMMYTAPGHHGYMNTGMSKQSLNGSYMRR
# Assay: Kat6b Activity Assay
# From the text: Kat6b inhibitory activities of the compounds described in the present invention were quantified using a Fluorescence Resonance Energy Transfer (TR-FRET) assay which measures acetylation of a synthetic, biotinylated Histone-H4-derived peptide by the enzyme.Recombinant human GST-tagged Kat6b protein (431-end, N-terminal GST-tag), purified from Baculovirus- infected insect cells (Sf9), was purchased from SignalChem (#K315-381BG). Histone H4 peptide (amino acids 1-24, […]-VLRD-K(Btn)-amide), which was used as substrate, was synthesized by Biosyntan GmbH, Berlin, Germany. Acetyl Coenzyme A was purchased from Sigma-Aldrich (#A-2056). Kat6b was incubated for 30 mins at 22°C in the presence of different concentrations of test substances (0 μM, and within the range 0.01 - 20 μM) in assay buffer [25 mM Tris/HCl pH 8, 1 mM EGTA, 2.5 mM Glutathion, 0.02% Chicken Albumin, 0.05% Pluronic F127, 25 mM NaCl, 500 nM H4 peptide and 600 nM Acetyl Coenzyme A].The reaction was stopped by addition of Detection Solution (25mM HEPES pH 7.5, 0.1% BSA, 22nM SAXL665 (Cisbio #610SAXLE), 100μM Anacardic Acid (Enzo #ALX-270-381), 1nM Anti-Histone H4 (ACETYL K8) Antibody (ABCAM #AB15823), 0.5 nM Anti-Rabbit IgG Eu (Perkin Elmer #AD0083).The fluorescence emission at 620 nm and 665 nm after excitation at 330-350 nm was measured in a TR-FRET measuring instrument, for instance a Rubystar or a Pherastar (both from BMG Lab Technologies, Offenburg, Germany) or a Viewlux (Perkin-Elmer). The ratio of the emission at 665 nm and at 622 nm was used as indicator of the amount of acetylated peptide.The resulting data (ratio) were normalized, taking 0% inhibition as the mean value of control measurements where all reagents were included. In this case 50 nl DMSO were used instead of compounds. A 100% inhibition corresponded to the mean value of control measurements where all reagents except enzyme were included. IC50 values were determined by regression analysis based on a 4 parameter equation (minimum, maximum, ICM, Hill; Y = Max + (Min - Max) / (1 + (X/ICso) Hill) using the Screener Software (Genedata).
row,SMILES,IC50 [nM]
1,"O=C(NS(=O)(=O)c1ccccc1-c1ccccc1)c1cc2ccc(-c3cccnc3)cc2o1 [WO2022081842, Example 4]",> 20000
2,"O=C(O)c1ccc2cc(C(=O)NS(=O)(=O)c3ccccc3-c3ccccc3)oc2c1 [WO2022081842, Example 5]",> 20000
3,"CN(C)C(=O)c1ccc2cc(C(=O)NS(=O)(=O)c3ccccc3-c3ccccc3)oc2c1 [WO2022081842, Example 8]",> 20000
4,"Cc1ccc2cccc(S(=O)(=O)NC(=O)c3cc4c(F)cc(C5CC5)cc4o3)c2n1 [WO2022081842, Example 22]",23
5,"C=C(C)c1ccc2cc(C(=O)NS(=O)(=O)c3ccccc3-c3ccccc3)oc2c1 [WO2022081842, Example 23]",155
6,"CCOc1ccccc1S(=O)(=O)NC(=O)c1cc2c(F)cc(C3CC3)cc2o1 [WO2022081842, Example 25]",28
7,"CC(C)c1ccc2cc(C(=O)NS(=O)(=O)c3ccc(Cl)cc3Cl)oc2c1 [WO2022081842, Example 57]",5250
8,"CC(C)(C)c1ccc(OCc2ccccc2)c(S(=O)(=O)NC(=O)c2cc3c(F)cc(C4CC4)cc3o2)c1 [WO2022081842, Example 60]",45
